According to PubChem BioAssay AID1963982 (Molecular Pharmacology Branch, DTP, NCI, 2024):

System: 313798-341-R-J2-PDC spheroids, viability
Experiment: Anticancer human tumor 313798-341-R-J2-PDC patient-derived cervical squamous cell carcinoma cell line growth inhibition [PI3K]
Conditions: spheroids with HUVEC and MSC; for IC50: curve of first compound; for viability, T/C: stronger effect = lower value; active = viability on the fitted dose curve at most 10% of control; inactive = the rest
In short: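 Complex 3D spheroids (cancer cells + endothelial HUVEC + mesenchymal stem cells); drug pairs of targeted agent x inavolisib/alpelisib/duvelisib/copanlisib; half-log series from ~Cmax, max 10 microM if Cmax unknown; endpoint viability.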

[1] = second compound 0.0316 µM, first compound 0.0316 µM
[2] = second compound 0.0316 µM, first compound 0.1 µM
[3] = second compound 0.0316 µM, first compound 0.316 µM
[4] = second compound 0.0316 µM, first compound 1 µM
[5] = second compound 0.0316 µM, first compound 3.16 µM
[6] = second compound 0.0316 µM, first compound 10 µM
[7] = second compound 0.1 µM, first compound 0.0316 µM
[8] = second compound 0.1 µM, first compound 0.1 µM
[9] = second compound 0.1 µM, first compound 0.316 µM
[10] = second compound 0.1 µM, first compound 1 µM
[11] = second compound 0.1 µM, first compound 3.16 µM
[12] = second compound 0.1 µM, first compound 10 µM
[13] = second compound 0.316 µM, first compound 0.0316 µM
[14] = second compound 0.316 µM, first compound 0.1 µM
[15] = second compound 0.316 µM, first compound 0.316 µM
[16] = second compound 0.316 µM, first compound 1 µM
[17] = second compound 0.316 µM, first compound 3.16 µM
[18] = second compound 0.316 µM, first compound 10 µM
[19] = second compound 1 µM, first compound 0.0316 µM
[20] = second compound 1 µM, first compound 0.1 µM
[21] = second compound 1 µM, first compound 0.316 µM
[22] = second compound 1 µM, first compound 1 µM
[23] = second compound 1 µM, first compound 3.16 µM
[24] = second compound 1 µM, first compound 10 µM
[25] = second compound 3.16 µM, first compound 0.0316 µM
[26] = second compound 3.16 µM, first compound 0.1 µM
[27] = second compound 3.16 µM, first compound 0.316 µM
[28] = second compound 3.16 µM, first compound 1 µM
[29] = second compound 3.16 µM, first compound 3.16 µM
[30] = second compound 3.16 µM, first compound 10 µM
[31] = second compound 10 µM, first compound 0.0316 µM
[32] = second compound 10 µM, first compound 0.1 µM
[33] = second compound 10 µM, first compound 0.316 µM
[34] = second compound 10 µM, first compound 1 µM
[35] = second compound 10 µM, first compound 3.16 µM
[36] = second compound 10 µM, first compound 10 µM
[37] = second compound 0.00316 µM, first compound 0.0316 µM
[38] = second compound 0.00316 µM, first compound 0.1 µM
[39] = second compound 0.00316 µM, first compound 0.316 µM
[40] = second compound 0.00316 µM, first compound 1 µM
[41] = second compound 0.00316 µM, first compound 3.16 µM
[42] = second compound 0.00316 µM, first compound 10 µM
[43] = second compound 0.01 µM, first compound 0.0316 µM
[44] = second compound 0.01 µM, first compound 0.1 µM
[45] = second compound 0.01 µM, first compound 0.316 µM
[46] = second compound 0.01 µM, first compound 1 µM
[47] = second compound 0.01 µM, first compound 3.16 µM
[48] = second compound 0.01 µM, first compound 10 µM
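Note: spheroids exposed to compounds for seven days.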
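Throughout, for viability, T/C: 100% = DMSO vehicle control viability.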

C[C@@H](NC(=O)c1ncnc(N)c1Cl)c1ncc(C(=O)Nc2cc(C(F)(F)F)c(Cl)cn2)s1 + Cc1nc(NC(=O)N2CCCC2C(N)=O)sc1-c1ccnc(C(C)(C)C(F)(F)F)c1
< 31.6 nM: IC50 (second compound 10 µM)
inactive: viability, T/C [1] 106% | viability, T/C [2] 93.3% | viability, T/C [3] 103% | viability, T/C [4] 101% | viability, T/C [5] 108% | viability, T/C [6] 107% | viability, T/C [7] 104% | viability, T/C [8] 112% | viability, T/C [9] 92.8% | viability, T/C [10] 111% | viability, T/C [11] 115% | viability, T/C [12] 113% | viability, T/C [13] 111% | viability, T/C [14] 121% | viability, T/C [15] 104% | viability, T/C [16] 105% | viability, T/C [17] 110% | viability, T/C [18] 109% | viability, T/C [19] 104% | viability, T/C [20] 92% | viability, T/C [21] 89.7% | viability, T/C [22] 101% | viability, T/C [23] 98.6% | viability, T/C [24] 88% | viability, T/C [25] 63.7% | viability, T/C [26] 60% | viability, T/C [27] 69.2% | viability, T/C [28] 71.1% | viability, T/C [29] 64.9% | viability, T/C [30] 58.4% | viability, T/C [31] 31.8% | viability, T/C [32] 35.1% | viability, T/C [33] 38.2% | viability, T/C [34] 33.4% | viability, T/C [35] 39.6% | viability, T/C [36] 39.5%
> 10000 nM: IC50 (second compound 0.0316 µM) | IC50 (second compound 0.1 µM) | IC50 (second compound 0.316 µM) | IC50 (second compound 1 µM) | IC50 (second compound 3.16 µM)

CC1(C)CCC(Nc2ncc(C(F)(F)F)c(-c3c[nH]c4c(P(C)(C)=O)c(C#N)ccc34)n2)CN1 (stereo not drawn)
inactive: viability, T/C (compound 0.0316 µM) 56.6% [middle of 4 runs] | viability, T/C (compound 0.1 µM) 46.7% [middle of 4 runs] | viability, T/C (compound 0.316 µM) 50.4% [middle of 4 runs] | viability, T/C (compound 1 µM) 53.8% [middle of 4 runs] | viability, T/C (compound 3.16 µM) 58.9% [middle of 4 runs]

C[C@@H](NC(=O)c1ncnc(N)c1Cl)c1ncc(C(=O)Nc2cc(C(F)(F)F)c(Cl)cn2)s1 + CC(Nc1ncnc2nc[nH]c12)c1cc2cccc(Cl)c2c(=O)n1-c1ccccc1
> 10000 nM: IC50 (second compound 0.0316 µM) | IC50 (second compound 0.1 µM) | IC50 (second compound 0.316 µM) | IC50 (second compound 1 µM) | IC50 (second compound 3.16 µM) | IC50 (second compound 10 µM)
inactive: viability, T/C [1] 90.2% | viability, T/C [2] 104% | viability, T/C [3] 106% | viability, T/C [4] 112% | viability, T/C [5] 100% | viability, T/C [6] 101% | viability, T/C [7] 98.3% | viability, T/C [8] 100% | viability, T/C [9] 98.3% | viability, T/C [10] 98.7% | viability, T/C [11] 110% | viability, T/C [12] 117% | viability, T/C [13] 99.3% | viability, T/C [14] 102% | viability, T/C [15] 101% | viability, T/C [16] 97.7% | viability, T/C [17] 103% | viability, T/C [18] 105% | viability, T/C [19] 98.5% | viability, T/C [20] 106% | viability, T/C [21] 90.9% | viability, T/C [22] 101% | viability, T/C [23] 104% | viability, T/C [24] 95.7% | viability, T/C [25] 98% | viability, T/C [26] 100% | viability, T/C [27] 98.6% | viability, T/C [28] 98.9% | viability, T/C [29] 106% | viability, T/C [30] 96.1% | viability, T/C [31] 94% | viability, T/C [32] 85.2% | viability, T/C [33] 82.8% | viability, T/C [34] 86.7% | viability, T/C [35] 89.9% | viability, T/C [36] 88.6%

Cn1ncc(Cl)c1-c1cc(C(=O)NC(CN)Cc2cccc(F)c2)sc1Cl (stereo not drawn) + CC(Nc1ccc2c(c1)OCCn1cc(N3C(=O)OCC3C(F)F)nc1-2)C(N)=O
822 nM: IC50 (second compound 0.1 µM)
1040 nM: IC50 (second compound 0.01 µM)
889 nM: IC50 (second compound 0.0316 µM)
970 nM: IC50 (second compound 0.00316 µM)
190 nM: IC50 (second compound 1 µM)
inactive: viability, T/C [37] 117% | viability, T/C [38] 91.3% | viability, T/C [39] 94.2% | viability, T/C [40] 48.3% | viability, T/C [41] 34.4% | viability, T/C [42] 38.6% | viability, T/C [43] 97.3% | viability, T/C [44] 102% | viability, T/C [45] 75.5% | viability, T/C [46] 52.4% | viability, T/C [47] 38.1% | viability, T/C [48] 35.6% | viability, T/C [1] 102% | viability, T/C [2] 107% | viability, T/C [3] 84.5% | viability, T/C [4] 46.8% | viability, T/C [5] 35.1% | viability, T/C [6] 34.9% | viability, T/C [7] 114% | viability, T/C [8] 95.7% | viability, T/C [9] 67.6% | viability, T/C [10] 47.4% | viability, T/C [11] 35.2% | viability, T/C [12] 36.8% | viability, T/C [13] 74.6% | viability, T/C [14] 69.6% | viability, T/C [15] 57.9% | viability, T/C [16] 41.4% | viability, T/C [17] 32.8% | viability, T/C [18] 35.7% | viability, T/C [19] 59.8% | viability, T/C [20] 56.1% | viability, T/C [21] 44.7% | viability, T/C [22] 37.2% | viability, T/C [23] 28.7% | viability, T/C [24] 32.2%
535 nM: IC50 (second compound 0.316 µM)

CNC(=O)c1ccc(N2C(=S)N(c3ccc(C#N)c(C(F)(F)F)c3)C(=O)C2(C)C)cc1F + COc1c(OCCCN2CCOCC2)ccc2c3n(c(=NC(=O)c4cnc(N)nc4)nc12)CCN3
inactive: viability, T/C [37] 98.3% | viability, T/C [38] 117% | viability, T/C [39] 102% | viability, T/C [40] 112% | viability, T/C [41] 99.8% | viability, T/C [42] 87.1% | viability, T/C [43] 102% | viability, T/C [44] 100% | viability, T/C [45] 97.3% | viability, T/C [46] 115% | viability, T/C [47] 94.7% | viability, T/C [48] 96.7% | viability, T/C [1] 73.3% | viability, T/C [2] 79.2% | viability, T/C [3] 73.2% | viability, T/C [4] 71.3% | viability, T/C [5] 74.1% | viability, T/C [6] 62.8% | viability, T/C [7] 37.3% | viability, T/C [8] 42.9% | viability, T/C [9] 39.7% | viability, T/C [10] 40.8% | viability, T/C [11] 34.9% | viability, T/C [12] 31.8% | viability, T/C [13] 15.5% | viability, T/C [14] 16.6% | viability, T/C [15] 13.9% | viability, T/C [16] 13.4% | viability, T/C [17] 14.8% | viability, T/C [18] 12.3% | viability, T/C [19] 11.8%
< 31.6 nM: IC50 (second compound 0.1 µM) | IC50 (second compound 0.316 µM) | IC50 (second compound 1 µM)
> 10000 nM: IC50 (second compound 0.00316 µM) | IC50 (second compound 0.01 µM) | IC50 (second compound 0.0316 µM)
active: viability, T/C [20] 9.64% | viability, T/C [21] 11.3% | viability, T/C [22] 9.53% | viability, T/C [23] 9.76% | viability, T/C [24] 8.76%
